# Data: patent publication US8546348B2, “Upregulation of opioid receptors for management” (The Board of Regents of the University of Texas System, priority 2003, dated 2013)
# Values joined by “and” are separate entries in the source; they are usually repeats but may differ in a detail not shown here. Identical values can stand only once. Like-named read-outs stand apart in the source and are kept apart here.
# Columns and labels:
# [1] = tested on: high-threshold voltage-dependent Ca^2+ channels in DRG neurons; assay: Perforated patch recording of DAMGO block of Ba2+ currents in cultured DRG neurons; assay type: cell-based, rat; conditions: for IC50: read-out: apparent affinity for DAMGO inhibition (IC50)
# Procedure: Cells were superfused (2 ml/min) at 23-24° C. with external solution containing 130 mM tetraethylammonium (“TEA”) chloride, 5 mM CsCl, 1.5 mM BaCl2, 1 mM MgCl2, 10 mM Hepes, and 10 mM glucose (pH 7.2, adjusted with TEA-OH; osmolarity, 300 mosM). Patch electrodes (resistance, 2.2-3.5 MΩ) were filled with internal solution containing 100 mM CsMeSO3, 40 mM CsCl, 10 mM Hepes, and 300 μg/ml amphotericin B (pH=7.3 adjusted with CsOH, 320 mosM). The currents were filtered at 2-5 kHz and sampled at 100 μs per point. [D-Ala^2,N-MePhe^4,Gly^5-ol]enkephalin (“DAMGO”) was pressure delivered to the recorded cells through a drug applicator (8).
# All data were expressed as mean±SEM. Paw withdrawal latencies obtained from different rats were averaged. Changes before and after morphine treatment within one rat group were analyzed with one-way ANOVA followed by post hoc Newman-Keuls analysis. Antinociceptive responses were expressed as maximum possible effect (“MPE”) by using the relation MPE=(postdrug PWL−baseline PWL)/(cutoff PWL−baseline PWL)×100. Dose-response curves were plotted as MPE vs. dose and fitted with the logistic equation. The doses estimated to produce 50% MPE, A50, and 95% confidence intervals were determined. The dose-response curves for DAMGO in current measurements were fitted with the Hill equation, i.e., response=(max−min)×[IC50/(IC50^n+dose^n)]+min, where max and min are maximal and minimal responses, IC50 is the dose for 50% of the block, and n is the Hill coefficient. The 95% confidence band analysis was used to evaluate the significance of the change in the IC50 and maximal block. To assess the significance of changes between two means, the Student's t test was used. A p<0.05 was considered significant.
# It is well established that μ-opioids inhibit high-threshold voltage-dependent Ca^2+ currents in DRG neurons. […] Seven days after the infection, perforated patch whole-cell recordings were performed on the cells. External Ca^2+ was replaced by Ba^2+ to avoid rapid rundown of current responses.
# [2] = tested on: spared nerve injury (SNI) rats; assay: Mechanical allodynia (von Frey) in SNI rats treated with rAAV-δOR, intrathecal deltorphin or morphine; assay type: in vivo, rat
# Procedure: Similar method as described before was used to induce inflammation To produce the nerve-injury in the rat paw, spared nerve injury (SNI) in rats was generated by transecting the sural and common peroneal sciatic nerves in the left rat leg while leaving the tibal nerve intact. To induce inflammation in the trigeminal nerve innervated areas, rats were lightly anesthetized with pentobarbital. CFA (10-50 μl) was injected into the rat temporomandibular joint (TMJ) 3-4 weeks after infection of rAAV-dOR. Behavioral experiments were performed 5-14 days after the CFA injection. To induce spare nerve injury in the trigeminal nerve, the infraorbital nerve branch of the maxillary nerve was ligated and the ophthalmic and mandibular nerves were left intact.
# δ-opioid receptor expression was enhanced in dorsal root ganglia (DRGs) by injecting rAAV-dOR into the ganglion or into the sciatic nerve or by injecting dOR-FLAG DNA intrathecally. The δ-OR receptor expression was enhanced in the trigeminal ganglon by injecting rAAV-dOR into the trigeminal ganglion or into the maxillary nerve.
# Three to four weeks later, the effects of morphine or other analgesic drugs on mechanical allodynia in SNI rats were determined behaviorally. Rat hindpaw withdrawal (PW) thresholds in response to stimulation of Von Frey filaments were measured. Each test consisted of applications of a series of von Frey filaments (ranging from 0.4 to 15.0 g) to the lateral plantar surface of the tested paw until it withdrew or for a maximum of 60 s. To avoid injury during tests, the cutoff strength of the von Frey filament was 15 g. The up and down method described by Chaplan et al. (12) was used to determine the PW threshold. Mechanical threshold or the maximum possible effect (MPE), i.e., ((test−min)/(max−min)]×100%, was used to calculate morphine mechanical analgesic effects.
# [3] = tested on: injured rats (sciatic nerve ligation); conditions: Kabli and Cahill; cited from earlier work
# [4] = tested on: rats (thermal nociceptive responses); assay: Paw withdrawal latency to radiant heat, s.c. morphine, rats with rAAV injected into L4-L5 ganglia; assay type: in vivo, rat; conditions: 4 mg/kg morphine, non-CFA rats
# [5] = tested on: rats (inflammatory pain, CFA); assay: Morphine antinociception (MPE, radiant heat) in CFA rats after DRG or sciatic nerve injection of rAAV; assay type: in vivo, rat; conditions: s.c. morphine, rAAV injected into DRGs
# [6] = tested on: spared nerve injury (SNI) rats; assay: Mechanical allodynia (von Frey) in spared nerve injury rats, intrathecal morphine, rAAV-μOR; assay type: in vivo, rat; conditions: intrathecal 1-10 μg, SNI rats without rAAV
# [7] = tested on: rats (thermal hyperalgesia, CFA); assay: Paw withdrawal latency to radiant heat, intrathecal morphine, rats with rAAV injected into the sciatic nerve; conditions: rat, in vivo
SMILES,IC50 ([1]; rAAV-EGFP cells),percentage of cells responded to DAMGO inhibition ([1]; rAAV-EGFP-treated cells),"maximal block of Ba2+ currents ([1]; rAAV-μOR cells, Hill fit)",IC50 ([1]; rAAV-μOR cells),percentage of cells responded to DAMGO inhibition ([1]; rAAV-μOR-treated DRG neurons),percentage of cells responded to DAMGO inhibition ([1]; untreated cells),IC50 ([1]; untreated cells),reduction of allodynic responses ([2]; SNI rats),"reduction of allodynic responses ([2]; SNI rats, listed as Deltorphin)",reduction of allodynic responses ([2]; rAAV-δOR treated SNI rats),time for which the drug is effective in reducing allodynic responses [3],time at which antinociceptive effects reached a maximum [4],time in which antinociceptive effects dissipated [4],time at which MPEs peaked [5],time within which MPEs dissipated [5],relief of mechanical allodynia [6],time after which the effect dissipated [7],time at which MPE peaked [7]
"C[C@@H](NC(=O)[C@@H](N)Cc1ccc(O)cc1)C(=O)NCC(=O)N(C)[C@@H](Cc1ccccc1)C(=O)NCCO [DAMGO, [D-Ala^2,N-MePhe^4,Gly^5-ol]enkephalin]",530 ± 30 nM,54.5%,31.63% and 31.63±0.03%,170 ± 60 nM,89.2%,57.1%,640 ± 190 nM,–,–,–,–,–,–,–,–,–,–,–
CC(C)[C@H](NC(=O)[C@H](CCC(=O)O)NC(=O)[C@H](Cc1ccccc1)NC(=O)[C@@H](C)NC(=O)[C@@H](N)Cc1ccc(O)cc1)C(=O)N[C@H](C(=O)NCC(=O)O)C(C)C [deltorphin],–,–,–,–,–,–,–,rather ineffective,ineffective,became effective,21 days,–,–,–,–,–,–,–
CN1CC[C@]23c4c5ccc(O)c4O[C@H]2[C@@H](O)C=C[C@H]3[C@H]1C5 [morphine],–,–,–,–,–,–,–,–,–,–,14 days,30 to 40 min,80 to 90 min,30 to 40 min,100 to 120 min and 100 min,not effective,50 min,15 to 20 min
